According to PMC7782499, “Progerinin, an optimized progerin-lamin A binding inhibitor, ameliorates premature senescence phenotypes of Hutchinson-Gilford progeria syndrome” (Communications Biology, 2021):

Test: Liver microsomal stability, human
Type: in vitro ADME
Conditions: liver microsomes, read-out: Liver microsomal stability (% remaining during 30min)
Procedure: At pre-set time-points, blood concentration of JH4 was determined by LC-MS/MS analysis[22],[23]. Other chemicals were also tested using similar protocol. In vitro ADME studies (plasma protein binding, CYP inhibition, microsomal stability, plasma stability, and hERG inhibition) were performed by New Drug Development Center (Daegu, Korea) using standard protocols[24],[25].

SMILES: CC1(C)Oc2cc3oc(=O)ccc3cc2C[C@@H]1OC/C=C/c1ccccc1 [SLC-D011]
- remaining at 0.5 h: 21.5%
